Reference: the NIST ThermoML archive (doi:10.1021/je200813q)

Assay: mn = molality of the nth substance listed, in mol/kg
Details: 101.3 kPa, Liquid, Buoyancy - hydrostatic balance with magnetic suspension - one sinker

O=S(=O)([O-])[O-].[O]=[V+2] [oxovanadium(IV) sulfate] + O
mass density [kg/m3]
Details	283.15 K	293.15 K	298.15 K	303.15 K	313.15 K	323.15 K
m1 = 0.5	1074.6	1072.5	1070.7	1068	1065	1060.4
m1 = 0.8	1117.6	1114.8	1113	1110.7	1106.6	1101.7
m1 = 1	1144.9	1141.9	1139.8	1137.6	1133.3	1128.4
m1 = 1.2	1171.8	1169.5	1167.2	1164.6	1159.9	1154.7
m1 = 1.5	1211.3	1207.8	1205.3	1202.7	1198.3	1192.4
m1 = 1.8	1249.6	1245.6	1242.9	1240.4	1235.3	1229.9
m1 = 2	1274.1	1270	1267.4	1264.7	1259.6	1253.9
m1 = 2.2	1298.2	1293.9	1291.2	1288.8	1283.4	1277.6
m1 = 2.5	1333.7	1329.3	1326.5	1323.9	1318.5	1312.7
m1 = 2.8	1367.1	1362.8	1359.8	1357.2	1351.6	1345.6
m1 = 3	1389.5	1384.6	1381.3	1378.8	1373.4	1367.5
